{
  "source": "patent US4307104A",
  "about": "“Guanidine compounds” (Smith Kline & French Laboratories Limited, priority 1979, dated 1981)",
  "tested_on": "histamine H2 -receptors",
  "experiment": "inhibition of histamine-stimulated secretion of gastric acid from the lumen-perfused stomachs of rats anaesthetised with urethane",
  "format": "in vivo",
  "conditions": "i.v., lumen-perfused stomach of urethane-anaesthetised rats",
  "data": [
    {"smiles": "N=C(N)Nc1nc(CSCCNC2=C([N+](=O)[O-])CCCN2)cs1", "note": "[Example 1, 2-[2-(2-Guanidino-4-thiazolylmethylthio)ethylamino-]-3-nitro-1,4,5,6-tetrahydropyridine]", "values": [
      {"measurement": "dose causing 50% inhibition of maximal acid secretion", "value": "less than 0.1 micromole kh^-1"}
    ]}
  ]
}
